Experimental data: US20050203013A1, “Methods for inhibiting vascular permeability” (priority 2002, published 2005)

Columns and labels:
[1] = test system: RhoA; assay: RhoA activation assay; format: cell-based, Human; conditions: HMVEC-d
Method: • pGST-TRBD bacteria were grown and induced with isopropyl-thiogalactoside. The bacterial suspensions were divided into 50 ml aliquots and then harvested and frozen at −80° C. To prepare the GST-TRBD beads, each aliquot of frozen bacteria was resuspended in 2 ml of cold PBS, and then 20 μl of 1 M dithiothreitol (DTT), 20 μl of 0.2 M PMSF, and 40 μl of 50 mg/ml lysozyme were added. The sample was incubated on ice for 30 minutes. Next, 225 μL of 10% Triton X-100, 22.5 μL of IM MgCl2, 22.5 μl of 2000 KU/ml DNAse were added and the sample was incubated on ice for another 30 min. The supernatant was collected and incubated with 100 μl glutathione-coupled Sepharose 4B beads (Pharmacia Biotech) at 4° C. for 45 minutes. The beads were then washed with bead washing buffer (PBS with 10 mM DTT and 1% Triton X-100) and resuspended in the same buffer to give a 50% bead slurry.
Meanwhile, 24 hours serum-starved HMVEC-d cells were treated with 5 ng/ml TNP-470 at 37° C. for 2 hours, and then stimulated with 10 ng/ml of VEGF, PAF (10 nM), or histamine ([…]) for 5 minutes. Stimulation was stopped by adding cold PBS. Cells were lysed with lysis buffer (150 mM NaCl, 0.8 mM MgCl2, 5 mM EGTA, 1% IGEPAL, 50 mM HEPES, pH 7.5, 1 mM PMSF, 10 μg/ml leupeptin, and 10 μg/ml aprotinin). The supernatant was isolated and incubated with 50 μl of GST-TRBD beads at 4° C. for 45 minutes. Protein bound to beads was washed with AP wash buffer (50 mM Tris-HCl, pH 7.2, 1% Triton X-100, 150 mM NaCl, 10 mM MgCl2, 1 mM PMSF, 10 μg/ml leupeptin, and 10 μg/ml aprotinin) and analyzed by SDS-PAGE with an antibody against RhoA (Santa Cruz Biotechnology, CA).

[2] = test system: Bovine adrenal capillary endothelial cells; assay: BCE proliferation assay; format: cell-based; conditions: challenged with bFGF, 72 h
Method: Bovine adrenal capillary endothelial cells were seeded on gelatinized plates (15,000/well). Following 24 h incubation, cells were challenged with free and conjugated TNP-470, and bFGF (1 ng/ml) was added to the medium. Cells were counted after 72 h.

[3] = test system: HMVEC-d cells; assay: Cell migration assay (modified Boyden chamber); format: cell-based, Human
Method: The motility response of HMVEC-d cells was assayed using a modified Boyden chamber. Cells were plated in T75-cm^2 flasks at 0.5×10^6 cells per flask and allowed to grow for 48 hours (˜70% confluent) prior to the migration assay. To facilitate cell adhesion, the upper membrane of a transwell (8 μm pore; Costar) was coated with fibronectin (10 μg/ml; Becton Dickinson) overnight at 4° C. Coated membranes were rinsed with PBS and allowed to air dry immediately before use. Cells were detached by trypsinization, treated with trypsinization neutralization solution (Clonetics), and resuspended at a final concentration of […] in serum-free EBM-2 containing 0.1% BSA or free or conjugated TNP470 at equivalent concentrations of 1 ng/ml. Cells (50,000 in 100 μl) were added to the upper chamber of the transwell. Following a 2 hours incubation, EBM-2 or EBM-2 supplemented with VPF/VEGF (5 ng/ml) was added to the lower chamber and cells were allowed to migrate toward the bottom chamber for 4 hours in a humidified incubator containing 5% CO2. […] The number of migrated cells was measured using microscopy (three fields from each membrane were captured using a 10× objective), and images were captured with a CCD camera using SPOT software. Total migration per membrane was quantified from the captured images using Scion Image software (National Institutes of Health). […]

[4] = test system: ear swelling; assay: Delayed-type hypersensitivity reaction elicited by oxazolone; format: in vivo, C57B1/6J mice
Method: Delayed-type hypersensitivity (DTH) reactions were induced in the skin of 8-week-old C57B1/6J male mice (n=5) as previously described (Dvorak et al., 1984). In order to induce an immune response to oxazolone, mice were first sensitized by topical application of 2% oxazolone solution in vehicle, acetone: olive oil (4:1 vol/vol), to the shaved abdomen (50 μl) and to each paw (5 μl). Mice were treated with TNP-470 (30 mg/kg s.c.) for three days prior to the second challenge with oxazolone. Five days after sensitization, the right ears were challenged by topical application of 10 μl of a 1% oxazolone solution; the left ears were treated with vehicle alone. Ear thickness was then measured daily for up to 7 days as a measure of inflammation intensity (Gad et al., 1986). Statistical analysis was performed using the unpaired Student t test. Some mice from each experimental group were euthanized 24 hours after oxazolone challenge (n=5 per group). One half of each ear was fixed in 10% formalin and was processed, embedded in paraffin and stained for H & E. The other half was embedded in OCT compound (Sakura Finetek, Torrance, Calif.) and snap-frozen in liquid nitrogen. Immunohistochemical staining was performed on 5 μm cryostat sections using a Vecstatin avidin-biotin detection system (Vector Labs, Burlingame, Calif.) with rat monoclonal antibodies against mouse CD31 (dilution 1:250, Pharmingen, San Diego, Calif.) according to the manufacturers' instructions.

[5] = test system: chick aortic rings; assay: Chick aortic ring assay; format: cell-based
Method: Aortic arches were dissected from day-14 chick embryos and cut into cross-sectional fragments, everted to expose the endothelium, and explanted in Matrigel. When cultured in serum-free MCDB-131 medium, endothelial cells outgrow and three-dimensional vascular channel formation occurred within […]. Free and conjugated TNP-470 were added to the culture.

Compound: CO[C@@H]1[C@H](OC(=O)NC(=O)CCl)CC[C@]2(CO2)[C@H]1[C@@]1(C)O[C@@H]1CC=C(C)C [TNP-470]
- PAF-induced RhoA activation [1]: inhibited
- VPF/VEGF-induced RhoA activation [1]: significantly suppressed
- histamine-induced RhoA activation [1]: inhibited
- BCE cell growth [2]: inhibited
- inhibition at 0.001 µg/mL ([3]; Homo sapiens, 1 ng/ml, 2 hours pretreatment, 4 hours migration, read-out: inhibition of chemotactic migration response to VPF/VEGF): 68%
- inhibition of basal migration ([3]; absence of VPF/VEGF): 70%
- inflammatory response (histology) ([4]; 24 hours after challenge): dramatically reduced
- ear swelling and erythema vs control mice ([4]; 24 hours after oxazolone challenge, P<0.01): significantly reduced ear swelling and erythema
- difference in ear swelling vs control mice ([4]; 48 hours, P<0.01): persisted
- difference in ear swelling vs control mice ([4]; 4 days): differences had disappeared
- concentration showing efficacy (reduced number and length of vascular sprouts) [5]: 50 pg/mL
- concentration that completely prevented outgrowth [5]: 100 pg/mL
